Experimental data as given in ChEMBL document CHEMBL2429790, “Identification of 2-amino-5-aryl-pyrazines as inhibitors of human lactate dehydrogenase” (Bioorg Med Chem Lett, 2013).
Values after ≈ are worked out from the molar mass of the structure shown.

Key:
[1] = target: T1, L-lactate dehydrogenase A chain (Homo sapiens, UniProt P00338); test: Binding affinity to human recombinant carboxy-terminal his-tagged LDHA (1 to 331) expressed in Escherichia coli by surface plasmon resonance analysis in presence of NADH
[2] = target: T1, L-lactate dehydrogenase A chain; test: Inhibition of human recombinant carboxy-terminal his-tagged LDHA (1 to 331) expressed in Escherichia coli using pyruvate as substrate assessed as disappearance of NADH after 10 mins by fluorescence assay
[3] = target: L-lactate dehydrogenase B chain (Homo sapiens, UniProt P07195)
Sequence of L-lactate dehydrogenase B chain (P07195 whole entry): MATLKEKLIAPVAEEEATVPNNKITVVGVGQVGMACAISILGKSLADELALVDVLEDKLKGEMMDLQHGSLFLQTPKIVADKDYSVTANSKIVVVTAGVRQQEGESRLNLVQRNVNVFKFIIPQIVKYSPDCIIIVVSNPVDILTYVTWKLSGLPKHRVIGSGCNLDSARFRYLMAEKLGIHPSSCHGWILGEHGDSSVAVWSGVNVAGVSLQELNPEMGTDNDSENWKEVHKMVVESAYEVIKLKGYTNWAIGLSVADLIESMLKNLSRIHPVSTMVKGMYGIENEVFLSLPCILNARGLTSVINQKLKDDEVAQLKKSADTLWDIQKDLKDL

Cytochrome P450 2C9 = Cytochrome P450 2C9 (Homo sapiens, UniProt P11712); test: Inhibition of CYP2C9 (unknown origin) up to 10 uM; format: ADME
Sequence of Cytochrome P450 2C9 (P11712 whole entry): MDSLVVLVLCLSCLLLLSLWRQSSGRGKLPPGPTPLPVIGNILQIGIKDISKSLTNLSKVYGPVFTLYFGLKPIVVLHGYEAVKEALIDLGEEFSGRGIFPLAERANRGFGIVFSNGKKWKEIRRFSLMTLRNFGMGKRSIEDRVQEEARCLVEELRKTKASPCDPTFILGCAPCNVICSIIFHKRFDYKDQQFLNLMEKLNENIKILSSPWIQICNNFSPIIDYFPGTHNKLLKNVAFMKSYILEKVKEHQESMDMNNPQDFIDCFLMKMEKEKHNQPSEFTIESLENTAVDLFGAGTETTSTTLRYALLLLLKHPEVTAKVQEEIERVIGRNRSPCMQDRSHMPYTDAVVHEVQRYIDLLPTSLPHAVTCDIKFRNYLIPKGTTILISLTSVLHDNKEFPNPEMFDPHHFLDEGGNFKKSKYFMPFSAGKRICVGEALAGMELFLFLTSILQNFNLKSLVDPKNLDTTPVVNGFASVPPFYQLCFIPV

[4] = Plasma protein binding in rat at 5 uM after 4 hrs by equilibrium dialysis method; format: ADME, cell-free; conditions: read-out: PPB (converted)
Cytochrome P450 2D6 = Cytochrome P450 2D6 (Homo sapiens, UniProt P10635); test: Inhibition of CYP2D6 (unknown origin) up to 10 uM; format: ADME
Sequence of Cytochrome P450 2D6 (P10635 whole entry): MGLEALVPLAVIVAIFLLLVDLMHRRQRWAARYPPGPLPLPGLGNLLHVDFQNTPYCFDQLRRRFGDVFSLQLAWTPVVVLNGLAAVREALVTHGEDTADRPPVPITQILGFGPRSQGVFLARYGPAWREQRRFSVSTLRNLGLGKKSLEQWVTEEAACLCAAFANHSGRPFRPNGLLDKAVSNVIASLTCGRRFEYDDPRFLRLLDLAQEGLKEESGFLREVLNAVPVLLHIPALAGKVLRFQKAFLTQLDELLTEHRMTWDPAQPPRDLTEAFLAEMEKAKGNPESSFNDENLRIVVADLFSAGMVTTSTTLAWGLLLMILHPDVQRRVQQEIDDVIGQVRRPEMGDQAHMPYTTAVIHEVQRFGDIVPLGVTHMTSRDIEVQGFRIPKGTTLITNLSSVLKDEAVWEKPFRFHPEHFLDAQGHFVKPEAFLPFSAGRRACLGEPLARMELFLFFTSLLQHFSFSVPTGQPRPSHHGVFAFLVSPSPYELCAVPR

[5] = Cmax in Sprague-Dawley rat at 0.5 mg/kg, iv; format: ADME, organism-based; parameters: dose 0.5 mg/kg, route intravenous; conditions: in vivo
[6] = Aqueous kinetic solubility of the compound at pH 7.4; format: physicochemical; conditions: read-out: Kinetic_solubility
Cytochrome P450 3A4 = Cytochrome P450 3A4 (Homo sapiens, UniProt P08684); test: Inhibition of CYP3A4 (unknown origin) up to 10 uM; format: ADME
Sequence of Cytochrome P450 3A4 (P08684 whole entry): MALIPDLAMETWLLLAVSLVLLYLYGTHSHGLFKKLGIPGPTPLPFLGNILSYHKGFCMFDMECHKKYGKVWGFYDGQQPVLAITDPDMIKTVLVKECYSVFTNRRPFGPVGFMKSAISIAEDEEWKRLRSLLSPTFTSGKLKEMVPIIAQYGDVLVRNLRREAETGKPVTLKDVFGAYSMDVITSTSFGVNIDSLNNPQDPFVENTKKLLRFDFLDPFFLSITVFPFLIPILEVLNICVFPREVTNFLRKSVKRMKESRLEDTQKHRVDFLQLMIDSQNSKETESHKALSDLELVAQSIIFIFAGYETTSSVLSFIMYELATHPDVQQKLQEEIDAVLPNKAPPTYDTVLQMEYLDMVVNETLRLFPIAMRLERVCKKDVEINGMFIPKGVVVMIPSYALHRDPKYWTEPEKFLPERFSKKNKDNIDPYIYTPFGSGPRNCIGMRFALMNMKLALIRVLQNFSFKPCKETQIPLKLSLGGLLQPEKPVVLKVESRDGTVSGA

[7] = Permeability across apical to basolateral side in MDCK cells; format: ADME, cell-based, Canis lupus familiaris; conditions: dog, read-out: permeability
[8] = AUC (infinity) in Sprague-Dawley rat at 1.5 mg/kg, po; format: ADME, organism-based; parameters: time infinity, dose 1.5 mg/kg, route oral; conditions: plasma
[9] = Permeability across basolateral to apical side in MDCK cells; format: ADME, cell-based, Canis lupus familiaris; conditions: dog, read-out: permeability
[10] = Oral bioavailability in Sprague-Dawley rat at 1.5 mg/kg; format: ADME, organism-based; conditions: in vivo
[11] = Volume of distribution in Sprague-Dawley rat at 1.5 mg/kg, po and 0.5 mg/kg, iv; format: ADME, organism-based; conditions: in vivo
[12] = Half life in Sprague-Dawley rat at 1.5 mg/kg, po and 0.5 mg/kg, iv; format: ADME, organism-based; conditions: in vivo
[13] = Cytotoxicity against human MCF7-neo/Her2 cells assessed as cell viability at 50 uM by Sytox Green/Hoescht 33342 staining assay; format: cell-based
[14] = Plasma protein binding in human at 5 uM after 4 hrs by equilibrium dialysis method; format: ADME, cell-free; conditions: read-out: PPB
Cytochrome P450 2C19 = Cytochrome P450 2C19 (Homo sapiens, UniProt P33261); test: Inhibition of CYP2C19 (unknown origin) up to 10 uM; format: ADME
Sequence of Cytochrome P450 2C19 (P33261 whole entry): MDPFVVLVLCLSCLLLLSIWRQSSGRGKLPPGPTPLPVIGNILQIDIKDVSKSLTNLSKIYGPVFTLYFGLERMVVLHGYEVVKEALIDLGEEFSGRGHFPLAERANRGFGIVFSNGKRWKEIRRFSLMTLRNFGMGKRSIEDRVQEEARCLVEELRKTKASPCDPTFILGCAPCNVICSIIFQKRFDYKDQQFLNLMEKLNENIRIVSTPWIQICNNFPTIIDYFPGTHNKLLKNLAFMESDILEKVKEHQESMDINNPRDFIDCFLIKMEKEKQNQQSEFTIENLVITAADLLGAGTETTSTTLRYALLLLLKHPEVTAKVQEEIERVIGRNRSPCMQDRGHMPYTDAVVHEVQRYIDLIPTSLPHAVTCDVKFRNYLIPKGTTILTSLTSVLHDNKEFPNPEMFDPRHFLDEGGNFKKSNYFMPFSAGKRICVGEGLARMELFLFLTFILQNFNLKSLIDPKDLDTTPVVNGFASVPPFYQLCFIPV

[15] = Plasma clearance in Sprague-Dawley rat at 1.5 mg/kg, po and 0.5 mg/kg, iv; format: ADME, organism-based
Cytochrome P450 1A2 = target: T2, Cytochrome P450 1A2 (Homo sapiens, UniProt P05177); test: Inhibition of CYP1A2 (unknown origin) up to 10 uM; format: ADME
T2 sequence (P05177 whole entry): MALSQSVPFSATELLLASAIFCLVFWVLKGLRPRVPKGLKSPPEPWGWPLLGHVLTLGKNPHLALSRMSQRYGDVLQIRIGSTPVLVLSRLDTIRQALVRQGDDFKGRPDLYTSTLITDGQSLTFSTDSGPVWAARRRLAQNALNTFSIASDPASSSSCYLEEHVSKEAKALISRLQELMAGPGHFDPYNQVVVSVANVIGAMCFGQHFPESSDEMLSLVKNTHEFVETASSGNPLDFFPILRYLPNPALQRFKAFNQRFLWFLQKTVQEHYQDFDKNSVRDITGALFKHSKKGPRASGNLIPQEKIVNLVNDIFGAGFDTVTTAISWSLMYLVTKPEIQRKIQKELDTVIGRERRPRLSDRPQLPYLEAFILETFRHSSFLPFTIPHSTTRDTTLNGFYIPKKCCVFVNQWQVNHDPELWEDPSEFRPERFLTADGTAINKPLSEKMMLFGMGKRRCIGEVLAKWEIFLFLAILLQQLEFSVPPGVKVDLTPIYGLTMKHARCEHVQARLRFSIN

[16] = target: T1, L-lactate dehydrogenase A chain; test: Binding affinity to human recombinant carboxy-terminal his-tagged LDHA (1 to 331) expressed in Escherichia coli by surface plasmon resonance analysis in absence of NADH

SMILES	Kd [1] [µM]	IC50 [2] [µM]	IC50 [3] [µM]	also measured
C[C@H](Nc1nc(-c2cccc(C(=O)O)c2)cnc1N)c1ccccc1	> 100	> 100	–	–
C[C@@H](Nc1nc(-c2cccc(C(=O)O)c2)cnc1N)c1ccc(Cl)cc1	5	2	5	–
C[C@H](c1ccccc1)N(C)c1nc(-c2cccc(C(=O)O)c2)cnc1N	> 100	> 100	–	–
C[C@@H](Oc1nc(-c2cccc(C(=O)O)c2)cnc1N)c1ccccc1	> 100	> 100	> 100	–
C[C@@H](Nc1nc(-c2cccc(C(=O)O)c2)cnc1N)C1CCCCC1	7	3	–	–
Nc1ncc(-c2cccc(C(=O)O)c2)nc1NCC1CCCC1	18	19	–	–
COCCNc1nc(-c2cccc(C(=O)O)c2)cnc1N	> 100	> 100	–	–
C[C@@H](Nc1cc(-c2cccc(C(=O)O)c2)cnc1N)c1ccccc1	29	18	–	–
C[C@@H](Nc1nc(-c2cccc(C(=O)O)c2)ccc1N)c1ccccc1	> 100	> 100	–	–
C[C@@H](Nc1cncc(-c2cccc(C(=O)O)c2)n1)c1ccccc1	> 100	25	–	–
C[C@@H](Nc1nc(-c2cccc(C(=O)O)c2)cnc1O)c1ccccc1	> 100	> 100	> 100	–
CNc1ncc(-c2cccc(C(=O)O)c2)nc1N[C@H](C)c1ccccc1	> 100	73	> 100	–
CC(=O)Nc1ncc(-c2cccc(C(=O)O)c2)nc1N[C@H](C)c1ccccc1	–	> 100	> 100	–
C[C@@H](Nc1nc(-c2cccc(C(=O)O)c2)cnc1NS(C)(=O)=O)c1ccccc1	–	71	> 100	–
Cc1nc(N)c(N[C@H](C)c2ccccc2)nc1-c1cccc(C(=O)O)c1	> 100	91	> 100	–
Cc1ccc(C(=O)O)cc1-c1cnc(N)c(N[C@H](C)c2ccc(Cl)cc2)n1	–	0.5	–	inhibition (INH) (Cytochrome P450 2C9): Not Active; fraction unbound at 4 h, 5 µM [4]: 0.01; inhibition (INH) (Cytochrome P450 2D6): Not Active; Cmax [5]: 2100 nM; solubility kinetic [6]: 81 µM (≈ 31 µg/mL); inhibition (INH) (Cytochrome P450 3A4): Not Active; Papp A→B [7]: 12.1 ×10⁻⁶ cm/s; AUC(0-inf) [8]: 0.55 µM·h; Papp B→A [9]: 10.3 ×10⁻⁶ cm/s; bioavailability [10]: 41%; Vd [11]: 1.4 L/kg; half-life [12]: 2.8 h; Activity [13]: Non-toxic; fraction unbound at 4 h, 5 µM [14]: < 0.01; inhibition (INH) (Cytochrome P450 2C19): Not Active; clearance [15]: 60 mL/min/kg; inhibition (INH) (Cytochrome P450 1A2): Not Active
C[C@@H](Nc1nc(-c2csc(C(=O)O)c2)cnc1N)c1ccccc1	33	50	> 100	–

SMILES	Kd [1] [µM]	IC50 [2] [µM]	IC50 [3] [µM]	also measured
Cc1c(C(=O)O)cccc1-c1cnc(N)c(N[C@H](C)c2ccccc2)n1	> 100	35	–	–
Cc1ccc(-c2cnc(N)c(N[C@H](C)c3ccccc3)n2)cc1C(=O)O	29	15	–	–
Cc1cc(C(=O)O)cc(-c2cnc(N)c(N[C@H](C)c3ccccc3)n2)c1	7	4	7	–
Cc1ccc(C(=O)O)cc1-c1cnc(N)c(N[C@H](C)c2ccccc2)n1	3	2	6	–
CC(C)c1ccc(C(=O)O)cc1-c1cnc(N)c(N[C@H](C)c2ccccc2)n1	5	2	7	–
COc1ccc(C(=O)O)cc1-c1cnc(N)c(N[C@H](C)c2ccccc2)n1	3	2	7	–
C[C@@H](Nc1nc(-c2cc(C(=O)O)ccc2Cl)cnc1N)c1ccccc1	5	2	8	–
Nc1ncc(-c2cccc(C(=O)O)c2)nc1NCc1ccccc1	22	12	–	–
C[C@@H](Nc1nc(-c2cccc(C(=O)O)c2)cnc1N)c1ccccc1	7	4	–	inhibition (INH) (Cytochrome P450 2C9): Not Active; fraction unbound at 4 h, 5 µM [4]: 0.04; inhibition (INH) (Cytochrome P450 2D6): Not Active; solubility kinetic [6]: 137 µM (≈ 45.8 µg/mL); inhibition (INH) (Cytochrome P450 3A4): Not Active; Papp A→B [7]: 9.6 ×10⁻⁶ cm/s; Papp B→A [9]: 4 ×10⁻⁶ cm/s; Kd [16]: 857 µM; fraction unbound at 4 h, 5 µM [14]: 0.01; inhibition (INH) (Cytochrome P450 2C19): Not Active; inhibition (INH) (Cytochrome P450 1A2): Not Active
CCOC(=O)c1cccc(-c2cnc(N)c(N[C@H](C)c3ccccc3)n2)c1	> 100	> 100	–	–
C[C@@H](Nc1nc(-c2cccc(C(N)=O)c2)cnc1N)c1ccccc1	> 100	> 100	–	–
C[C@@H](Nc1nc(-c2cccc(C(=O)NS(C)(=O)=O)c2)cnc1N)c1ccccc1	> 100	> 100	> 100	–
C[C@@H](Nc1nc(-c2ccnc(C(=O)O)c2)cnc1N)c1ccccc1	32	24	–	–
C[C@@H](Nc1nc(-c2ccccc2C(=O)O)cnc1N)c1ccccc1	> 100	> 100	> 100	–
C[C@@H](Nc1nc(-c2ccc(C(=O)O)cc2)cnc1N)c1ccccc1	–	14	–	–
C[C@@H](Nc1nc(-c2ccc(C(=O)O)c(O)c2)cnc1N)c1ccccc1	–	10	–	–
C[C@@H](Nc1nc(-n2cc(C(=O)O)cn2)cnc1N)c1ccccc1	–	15	15	–
